Assays:
Test in all cases: KinaseProfiler kinase assay
Assay type in all cases: biochemical
ACK1(h) = ACK1(h) (Homo sapiens, UniProt Q07912)
Outline: (§1)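 Compounds were serially diluted from DMSO into 20 mM MOPS buffer with EDTA, Brij-35, glycerol, β-mercaptoethanol and 1 mg/mL BSA. Reactions started with MgATP/[γ-33P]ATP, ran 40 min at room temperature, and phosphorylation was measured by scintillation counting after filtermat capture.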

Arg(h) = Arg(h) (Homo sapiens, UniProt P42684)
Outline: as §1

CDK6/cyclinD3(h) = CDK6/cyclinD3(h) (Homo sapiens, UniProt Q00534)
Outline: as §1

DAPK1(h) = DAPK1(h) (Homo sapiens, UniProt P53355)
Outline: as §1

EphB3(h) = EphB3(h) (Homo sapiens, UniProt P54753)
Outline: as §1

Flt3(D835Y)(h) = Flt3(D835Y)(h) (Homo sapiens, UniProt P36888, D835Y)
Outline: as §1

IGF-1R(h) = IGF-1R(h) (Homo sapiens, UniProt P08069)
Outline: as §1

IKKα(h) = IKKα(h) (Homo sapiens, UniProt O15111)
Outline: as §1

IRAK1(h) = IRAK1(h) (Homo sapiens, UniProt P51617)
Outline: as §1

JAK2(h) = JAK2(h) (Homo sapiens, UniProt O60674)
Outline: as §1

JAK3(h) = JAK3(h) (Homo sapiens, UniProt P52333)
Sequence of JAK3(h) (P52333 whole entry): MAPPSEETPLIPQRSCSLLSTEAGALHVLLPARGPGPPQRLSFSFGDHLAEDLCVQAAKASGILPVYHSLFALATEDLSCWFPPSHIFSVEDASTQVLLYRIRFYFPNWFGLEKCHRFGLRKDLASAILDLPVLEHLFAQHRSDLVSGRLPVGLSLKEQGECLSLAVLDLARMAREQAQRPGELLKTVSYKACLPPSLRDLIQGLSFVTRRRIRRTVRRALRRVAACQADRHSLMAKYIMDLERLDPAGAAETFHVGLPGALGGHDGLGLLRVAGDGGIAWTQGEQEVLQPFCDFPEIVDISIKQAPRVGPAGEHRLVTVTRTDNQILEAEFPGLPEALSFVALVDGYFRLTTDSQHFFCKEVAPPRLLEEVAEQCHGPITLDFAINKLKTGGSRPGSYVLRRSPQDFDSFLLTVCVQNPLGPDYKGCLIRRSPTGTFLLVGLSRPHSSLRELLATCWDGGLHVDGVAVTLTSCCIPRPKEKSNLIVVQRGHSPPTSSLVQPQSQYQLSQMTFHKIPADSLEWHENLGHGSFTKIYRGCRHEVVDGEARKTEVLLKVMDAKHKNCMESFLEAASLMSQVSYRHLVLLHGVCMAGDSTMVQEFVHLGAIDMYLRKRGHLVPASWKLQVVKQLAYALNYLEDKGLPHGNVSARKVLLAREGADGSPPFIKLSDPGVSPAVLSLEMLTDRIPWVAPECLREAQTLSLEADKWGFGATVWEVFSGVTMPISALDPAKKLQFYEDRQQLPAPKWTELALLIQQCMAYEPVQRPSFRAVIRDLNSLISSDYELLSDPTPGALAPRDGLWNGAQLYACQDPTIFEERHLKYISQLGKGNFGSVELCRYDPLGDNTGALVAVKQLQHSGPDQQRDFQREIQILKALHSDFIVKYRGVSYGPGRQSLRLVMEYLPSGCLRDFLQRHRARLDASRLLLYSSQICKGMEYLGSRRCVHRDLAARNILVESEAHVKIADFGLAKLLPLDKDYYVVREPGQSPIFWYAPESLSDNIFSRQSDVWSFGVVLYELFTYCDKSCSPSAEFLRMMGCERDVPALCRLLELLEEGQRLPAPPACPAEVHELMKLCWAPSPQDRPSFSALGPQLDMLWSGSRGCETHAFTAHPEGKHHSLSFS
Outline: as §1

MKK4(m) = MKK4(m) (Mus musculus, UniProt P47809)
Sequence of MKK4(m) (P47809 whole entry): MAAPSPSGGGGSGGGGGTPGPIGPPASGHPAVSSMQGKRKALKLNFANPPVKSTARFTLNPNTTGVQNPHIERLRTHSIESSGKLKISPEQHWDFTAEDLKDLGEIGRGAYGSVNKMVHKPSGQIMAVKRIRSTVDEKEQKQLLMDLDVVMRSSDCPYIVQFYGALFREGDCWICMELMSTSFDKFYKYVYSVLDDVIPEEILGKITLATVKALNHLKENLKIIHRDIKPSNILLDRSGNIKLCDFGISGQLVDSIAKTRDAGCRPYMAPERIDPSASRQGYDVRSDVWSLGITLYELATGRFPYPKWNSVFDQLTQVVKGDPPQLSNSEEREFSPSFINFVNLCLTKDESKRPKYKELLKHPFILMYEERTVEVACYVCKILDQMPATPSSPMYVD
Outline: as §1

MKK6(h) = MKK6(h) (Homo sapiens, UniProt P52564)
Outline: as §1

MSK2(h) = MSK2(h) (Homo sapiens, UniProt O75676)
Outline: as §1

Met(h) = Met(h) (Homo sapiens, UniProt P08581)
Outline: as §1

NEK11(h) = NEK11(h) (Homo sapiens, UniProt Q8NG66)
Outline: as §1

NEK6(h) = NEK6(h) (Homo sapiens, UniProt Q9HC98)
Sequence of NEK6(h) (Q9HC98 whole entry): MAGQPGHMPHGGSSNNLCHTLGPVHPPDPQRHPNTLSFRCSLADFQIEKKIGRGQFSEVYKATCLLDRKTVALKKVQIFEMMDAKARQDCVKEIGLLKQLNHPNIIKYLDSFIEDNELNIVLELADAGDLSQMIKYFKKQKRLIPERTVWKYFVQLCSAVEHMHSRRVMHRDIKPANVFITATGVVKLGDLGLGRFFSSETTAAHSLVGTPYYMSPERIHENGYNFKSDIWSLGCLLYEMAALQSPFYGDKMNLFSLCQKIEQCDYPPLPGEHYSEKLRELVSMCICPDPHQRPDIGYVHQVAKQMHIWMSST
Outline: as §1

PAK5(h) = PAK5(h) (Homo sapiens, UniProt Q9P286)
Outline: as §1

PDGFRα(V561D)(h) = PDGFRα(V561D)(h) (Homo sapiens, UniProt P16234, V561D)
Outline: as §1

PEK(h) = PEK(h) (Homo sapiens, UniProt Q9NZJ5)
Outline: as §1

[1] = target: PI3 Kinase (p110α/p65α)(m) (Mus musculus, UniProt P42337)
Sequence of PI3 Kinase (p110α/p65α)(m) (P42337 whole entry): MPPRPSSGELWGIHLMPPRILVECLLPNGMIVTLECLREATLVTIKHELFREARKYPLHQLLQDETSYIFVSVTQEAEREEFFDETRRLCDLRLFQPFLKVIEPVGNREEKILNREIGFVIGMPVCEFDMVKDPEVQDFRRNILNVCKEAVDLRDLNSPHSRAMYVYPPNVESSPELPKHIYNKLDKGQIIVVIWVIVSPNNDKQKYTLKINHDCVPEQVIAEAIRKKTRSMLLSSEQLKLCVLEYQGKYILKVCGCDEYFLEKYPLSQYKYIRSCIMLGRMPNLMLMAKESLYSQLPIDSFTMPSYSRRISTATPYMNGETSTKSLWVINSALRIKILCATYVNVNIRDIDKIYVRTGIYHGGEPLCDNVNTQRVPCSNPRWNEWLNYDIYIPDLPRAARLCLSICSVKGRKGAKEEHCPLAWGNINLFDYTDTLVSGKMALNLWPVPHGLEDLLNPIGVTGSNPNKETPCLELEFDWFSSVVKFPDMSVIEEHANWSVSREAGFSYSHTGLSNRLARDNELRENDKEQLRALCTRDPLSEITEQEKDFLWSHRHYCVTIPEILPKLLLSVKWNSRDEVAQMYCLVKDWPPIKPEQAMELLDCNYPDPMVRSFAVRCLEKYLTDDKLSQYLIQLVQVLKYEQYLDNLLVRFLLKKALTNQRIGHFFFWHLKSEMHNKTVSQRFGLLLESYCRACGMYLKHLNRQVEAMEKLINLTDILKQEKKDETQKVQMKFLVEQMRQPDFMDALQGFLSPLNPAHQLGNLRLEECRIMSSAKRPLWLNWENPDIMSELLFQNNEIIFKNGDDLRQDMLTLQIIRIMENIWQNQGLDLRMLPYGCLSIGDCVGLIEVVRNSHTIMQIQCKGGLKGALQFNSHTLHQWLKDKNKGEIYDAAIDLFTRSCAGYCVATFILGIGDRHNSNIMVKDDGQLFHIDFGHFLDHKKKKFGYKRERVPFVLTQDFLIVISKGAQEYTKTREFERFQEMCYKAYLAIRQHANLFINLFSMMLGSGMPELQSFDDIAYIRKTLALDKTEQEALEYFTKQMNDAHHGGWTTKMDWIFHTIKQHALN
Outline: as §1

PI3KC2γ(h) = PI3KC2γ(h) (Homo sapiens, UniProt O75747)
Outline: as §1

PKCγ(h) = PKCγ(h) (Homo sapiens, UniProt P05129)
Outline: as §1

PKCε(h) = PKCε(h) (Homo sapiens, UniProt Q02156)
Outline: as §1

Pim-1(h) = Pim-1(h) (Homo sapiens, UniProt P11309)
Outline: as §1

Pyk2(h) = Pyk2(h) (Homo sapiens, UniProt Q14289)
Outline: as §1

ROCK-II(r) = ROCK-II(r) (Rattus norvegicus, UniProt Q62868)
Outline: as §1

SAPK2a(h) = SAPK2a(h) (Homo sapiens, UniProt Q16539)
Outline: as §1

Src(1-530)(h) = target: T1, Src(1-530)(h) (Homo sapiens, UniProt P12931)
T1 construct: Src(1-530)(h)
Outline: as §1

TAK1(h) = TAK1(h) (Homo sapiens, UniProt O43318)
Outline: as §1

Tie2 (h) = Tie2 (h) (Homo sapiens, UniProt Q02763)
Outline: as §1

Txk(h) = Txk(h) (Homo sapiens, UniProt P42681)
Outline: as §1

Sequence of Arg(h) (P42684 whole entry): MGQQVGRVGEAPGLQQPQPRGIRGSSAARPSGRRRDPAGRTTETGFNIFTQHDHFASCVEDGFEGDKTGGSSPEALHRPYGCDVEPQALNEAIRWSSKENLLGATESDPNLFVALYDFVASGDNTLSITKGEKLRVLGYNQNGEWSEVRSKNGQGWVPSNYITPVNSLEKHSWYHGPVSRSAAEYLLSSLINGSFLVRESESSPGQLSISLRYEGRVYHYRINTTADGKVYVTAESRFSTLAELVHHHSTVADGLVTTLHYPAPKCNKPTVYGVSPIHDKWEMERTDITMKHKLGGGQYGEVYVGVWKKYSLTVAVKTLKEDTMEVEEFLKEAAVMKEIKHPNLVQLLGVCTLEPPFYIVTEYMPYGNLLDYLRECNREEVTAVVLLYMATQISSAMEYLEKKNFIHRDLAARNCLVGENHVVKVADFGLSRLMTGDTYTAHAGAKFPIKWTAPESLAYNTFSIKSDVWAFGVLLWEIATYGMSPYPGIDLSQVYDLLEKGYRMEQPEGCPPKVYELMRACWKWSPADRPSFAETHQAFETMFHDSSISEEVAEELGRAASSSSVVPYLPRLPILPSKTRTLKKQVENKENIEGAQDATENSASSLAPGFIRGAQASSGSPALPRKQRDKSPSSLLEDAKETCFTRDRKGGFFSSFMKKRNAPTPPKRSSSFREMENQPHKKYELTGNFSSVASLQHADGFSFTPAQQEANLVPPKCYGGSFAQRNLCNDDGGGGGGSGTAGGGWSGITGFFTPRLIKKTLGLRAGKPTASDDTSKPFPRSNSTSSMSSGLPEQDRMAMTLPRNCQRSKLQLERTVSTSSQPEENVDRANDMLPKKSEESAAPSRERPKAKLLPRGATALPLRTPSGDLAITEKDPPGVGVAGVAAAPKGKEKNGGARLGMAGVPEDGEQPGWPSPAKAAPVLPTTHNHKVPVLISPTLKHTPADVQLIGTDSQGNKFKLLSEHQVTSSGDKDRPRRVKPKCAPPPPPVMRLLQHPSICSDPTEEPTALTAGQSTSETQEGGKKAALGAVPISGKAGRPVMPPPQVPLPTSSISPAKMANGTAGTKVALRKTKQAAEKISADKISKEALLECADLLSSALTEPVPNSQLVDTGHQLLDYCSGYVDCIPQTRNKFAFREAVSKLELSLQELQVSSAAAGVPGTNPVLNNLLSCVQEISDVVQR

| SMILES | inhibition at 0.1 µM (ACK1(h)) [%] | inhibition at 0.1 µM (Arg(h)) [%] | inhibition at 0.1 µM (CDK6/cyclinD3(h)) [%] | inhibition at 0.1 µM (DAPK1(h)) [%] | inhibition at 0.1 µM (EphB3(h)) [%] | inhibition at 0.1 µM (Flt3(D835Y)(h)) [%] | inhibition at 0.1 µM (IGF-1R(h)) [%] | inhibition at 0.1 µM (IKKα(h)) [%] | inhibition at 0.1 µM (IRAK1(h)) [%] | inhibition at 0.1 µM (JAK2(h)) [%] | inhibition at 0.1 µM (JAK3(h)) [%] | inhibition at 0.1 µM (MKK4(m)) [%] | inhibition at 0.1 µM (MKK6(h)) [%] | inhibition at 0.1 µM (MSK2(h)) [%] | inhibition at 0.1 µM (Met(h)) [%] | inhibition at 0.1 µM (NEK11(h)) [%] | inhibition at 0.1 µM (NEK6(h)) [%] | inhibition at 0.1 µM (PAK5(h)) [%] | inhibition at 0.1 µM (PDGFRα(V561D)(h)) [%] | inhibition at 0.1 µM (PEK(h)) [%] | further results |
| --- | --- | --- | --- | --- | --- | --- | --- | --- | --- | --- | --- | --- | --- | --- | --- | --- | --- | --- | --- | --- | --- |
| Cc1cc2c(F)c(Oc3nc(Nc4cc(C5CC5)[nH]n4)cc(N4CCN(C)CC4)n3)ccc2[nH]1 [Compound 10] | 99 | 104 | -5 | 0 | -8 | 99 | 78 | -12 | -2 | 92 | 86 | -2 | -5 | -7 | 54 | -8 | -11 | 60 | 86 | -4 | inhibition at 0.1 µM [1]: -1%; inhibition at 0.1 µM (PI3KC2γ(h)): 27%; inhibition at 0.1 µM (PKCγ(h)): -8%; inhibition at 0.1 µM (PKCε(h)): -10%; inhibition at 0.1 µM (Pim-1(h)): -21%; inhibition at 0.1 µM (Pyk2(h)): 64%; inhibition at 0.1 µM (ROCK-II(r)): 13%; inhibition at 0.1 µM (SAPK2a(h)): 10%; inhibition at 0.1 µM (Src(1-530)(h)): 101%; inhibition at 0.1 µM (TAK1(h)): 38%; inhibition at 0.1 µM (Tie2 (h)): 100%; inhibition at 0.1 µM (Txk(h)): 75% |
| Cc1cc2c(F)c(Oc3nc(Nc4cc(C5CC5)[nH]n4)cc(N4CCNCC4)n3)ccc2[nH]1 [Compound 11, N-(5-cyclopropyl-1H-pyrazol-3-yl)-2-((4-fluoro-2-methyl-1H-indol-5-yl)oxy)-6-(piperazin-1-yl)pyrimidin-4-amine] | 95 | 102 | 11 | 3 | -18 | 101 | 62 | -3 | -9 | 99 | 86 | -28 | -13 | -5 | 47 | -6 | -11 | 68 | 72 | -8 | inhibition at 0.1 µM [1]: 2%; inhibition at 0.1 µM (PI3KC2γ(h)): -2%; inhibition at 0.1 µM (PKCγ(h)): -5%; inhibition at 0.1 µM (PKCε(h)): 17%; inhibition at 0.1 µM (Pim-1(h)): -9%; inhibition at 0.1 µM (Pyk2(h)): 63%; inhibition at 0.1 µM (ROCK-II(r)): 16%; inhibition at 0.1 µM (SAPK2a(h)): -7%; inhibition at 0.1 µM (Src(1-530)(h)): 101%; inhibition at 0.1 µM (TAK1(h)): 44%; inhibition at 0.1 µM (Tie2 (h)): 98%; inhibition at 0.1 µM (Txk(h)): 87% |
